Measurements reported in the kinase profiling compilation of Christmann-Franck et al. (2016).

Experiments:
Experiment in all cases: radiometric filter-binding kinase assay
AURKB (human) = AURKB (human) (UniProt Q96GD4)
CAMKK2 (human) = CAMKK2 (human) (UniProt Q96RR4)
CSK (human) = CSK (human) (UniProt P41240)
CSNK1D (human) = CSNK1D (human) (UniProt P48730)
CaMK1 (human) = CaMK1 (human) (UniProt Q14012)
DYRK1A (human) = DYRK1A (human) (UniProt Q13627)
DYRK2 (human) = DYRK2 (human) (UniProt Q92630)
HIPK2 (human) = HIPK2 (human) (UniProt Q9H2X6)
IKBKB (human) = IKBKB (human) (UniProt O14920)
MAPK12 (human) = MAPK12 (human) (UniProt P53778)
MAPK14 (human) = MAPK14 (human) (UniProt Q16539)
MAPK15 (human) = MAPK15 (human) (UniProt Q8TD08)
MAPK8 (human) = MAPK8 (human) (UniProt P45983)
MAPK9 (human) = MAPK9 (human) (UniProt P45984)
MAPKAPK2 (human) = MAPKAPK2 (human) (UniProt P49137)
MAPKAPK5 (human) = MAPKAPK5 (human) (UniProt Q8IW41)
MELK (human) = MELK (human) (UniProt Q14680)
MKNK2 (human) = MKNK2 (human) (UniProt Q9HBH9)
PAK4 (human) = PAK4 (human) (UniProt O96013)
PAK7 (human) = PAK7 (human) (UniProt Q9P286)
PIM1 (human) = PIM1 (human) (UniProt P11309)
PRKACA (human) = PRKACA (human) (UniProt P17612)
BTK (human) = BTK (human) (UniProt Q06187)
EPHB3 (human) = EPHB3 (human) (UniProt P54753)
IGF1R (human) = IGF1R (human) (UniProt P08069); details: compound 1.0 µM
IKBKE (human) = IKBKE (human) (UniProt Q14164)
YES1 (human) = YES1 (human) (UniProt P07947)

Sequence of MAPK12 (human) (P53778 whole entry, looked up): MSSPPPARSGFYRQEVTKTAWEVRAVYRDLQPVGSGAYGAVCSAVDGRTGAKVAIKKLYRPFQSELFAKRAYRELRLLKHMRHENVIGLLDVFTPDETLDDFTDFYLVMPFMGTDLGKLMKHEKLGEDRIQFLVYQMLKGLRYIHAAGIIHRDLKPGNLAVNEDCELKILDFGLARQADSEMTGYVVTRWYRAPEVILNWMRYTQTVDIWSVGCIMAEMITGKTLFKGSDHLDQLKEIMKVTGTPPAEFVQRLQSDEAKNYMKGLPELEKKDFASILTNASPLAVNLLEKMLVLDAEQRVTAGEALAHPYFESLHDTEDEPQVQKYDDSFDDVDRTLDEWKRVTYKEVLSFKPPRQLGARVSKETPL
Sequence of MKNK2 (human) (Q9HBH9 whole entry, looked up): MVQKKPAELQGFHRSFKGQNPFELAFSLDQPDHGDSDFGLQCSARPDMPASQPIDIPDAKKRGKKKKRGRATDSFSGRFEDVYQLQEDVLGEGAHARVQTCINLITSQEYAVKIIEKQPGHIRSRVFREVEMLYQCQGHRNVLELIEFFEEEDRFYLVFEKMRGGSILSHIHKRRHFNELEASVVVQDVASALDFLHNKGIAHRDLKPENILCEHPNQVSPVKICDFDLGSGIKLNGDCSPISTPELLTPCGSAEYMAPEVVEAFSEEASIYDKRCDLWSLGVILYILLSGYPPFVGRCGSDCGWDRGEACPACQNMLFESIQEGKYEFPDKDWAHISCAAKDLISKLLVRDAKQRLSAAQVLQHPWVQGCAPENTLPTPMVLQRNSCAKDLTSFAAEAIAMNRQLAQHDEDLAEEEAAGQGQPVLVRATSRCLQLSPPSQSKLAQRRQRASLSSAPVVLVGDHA
Sequence of MAPKAPK5 (human) (Q8IW41 whole entry, looked up): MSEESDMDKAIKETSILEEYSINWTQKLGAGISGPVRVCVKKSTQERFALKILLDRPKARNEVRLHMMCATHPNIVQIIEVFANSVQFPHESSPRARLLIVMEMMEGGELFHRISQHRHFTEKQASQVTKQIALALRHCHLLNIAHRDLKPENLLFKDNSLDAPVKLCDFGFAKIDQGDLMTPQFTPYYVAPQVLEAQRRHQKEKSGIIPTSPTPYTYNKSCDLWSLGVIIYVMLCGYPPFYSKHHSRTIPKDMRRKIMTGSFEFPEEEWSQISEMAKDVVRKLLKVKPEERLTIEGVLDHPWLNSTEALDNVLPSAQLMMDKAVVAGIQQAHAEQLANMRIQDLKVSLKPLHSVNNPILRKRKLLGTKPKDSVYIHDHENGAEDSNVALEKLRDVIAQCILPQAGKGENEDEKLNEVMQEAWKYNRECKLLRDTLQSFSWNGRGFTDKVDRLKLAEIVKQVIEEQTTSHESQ
Sequence of CAMKK2 (human) (Q96RR4 whole entry, looked up): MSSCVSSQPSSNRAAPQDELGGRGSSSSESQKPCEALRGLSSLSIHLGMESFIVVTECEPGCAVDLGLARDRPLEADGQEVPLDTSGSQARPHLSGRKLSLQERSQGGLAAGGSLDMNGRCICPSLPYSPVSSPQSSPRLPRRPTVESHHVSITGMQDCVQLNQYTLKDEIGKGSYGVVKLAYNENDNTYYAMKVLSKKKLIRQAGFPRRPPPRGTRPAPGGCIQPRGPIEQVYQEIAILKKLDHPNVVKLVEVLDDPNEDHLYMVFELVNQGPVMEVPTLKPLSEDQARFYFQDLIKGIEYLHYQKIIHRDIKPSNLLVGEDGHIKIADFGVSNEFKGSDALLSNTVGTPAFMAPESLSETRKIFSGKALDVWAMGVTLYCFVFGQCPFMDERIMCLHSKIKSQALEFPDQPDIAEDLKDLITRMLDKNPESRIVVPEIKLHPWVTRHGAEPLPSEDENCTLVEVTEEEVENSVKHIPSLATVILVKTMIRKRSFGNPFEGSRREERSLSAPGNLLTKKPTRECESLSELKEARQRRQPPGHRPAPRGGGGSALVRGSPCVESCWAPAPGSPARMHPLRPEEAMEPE
Sequence of MAPK8 (human) (P45983 whole entry, looked up): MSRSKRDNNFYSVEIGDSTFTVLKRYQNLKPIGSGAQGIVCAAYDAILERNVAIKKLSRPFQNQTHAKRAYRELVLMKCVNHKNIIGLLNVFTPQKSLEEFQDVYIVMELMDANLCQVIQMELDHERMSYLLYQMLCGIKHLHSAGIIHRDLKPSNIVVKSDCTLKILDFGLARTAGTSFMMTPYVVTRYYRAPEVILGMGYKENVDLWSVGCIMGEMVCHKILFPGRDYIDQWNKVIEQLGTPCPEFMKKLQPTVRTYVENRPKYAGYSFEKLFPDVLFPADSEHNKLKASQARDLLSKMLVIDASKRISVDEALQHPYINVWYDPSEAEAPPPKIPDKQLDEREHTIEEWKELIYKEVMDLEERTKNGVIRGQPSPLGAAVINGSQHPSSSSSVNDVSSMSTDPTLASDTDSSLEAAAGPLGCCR
Sequence of MELK (human) (Q14680 whole entry, looked up): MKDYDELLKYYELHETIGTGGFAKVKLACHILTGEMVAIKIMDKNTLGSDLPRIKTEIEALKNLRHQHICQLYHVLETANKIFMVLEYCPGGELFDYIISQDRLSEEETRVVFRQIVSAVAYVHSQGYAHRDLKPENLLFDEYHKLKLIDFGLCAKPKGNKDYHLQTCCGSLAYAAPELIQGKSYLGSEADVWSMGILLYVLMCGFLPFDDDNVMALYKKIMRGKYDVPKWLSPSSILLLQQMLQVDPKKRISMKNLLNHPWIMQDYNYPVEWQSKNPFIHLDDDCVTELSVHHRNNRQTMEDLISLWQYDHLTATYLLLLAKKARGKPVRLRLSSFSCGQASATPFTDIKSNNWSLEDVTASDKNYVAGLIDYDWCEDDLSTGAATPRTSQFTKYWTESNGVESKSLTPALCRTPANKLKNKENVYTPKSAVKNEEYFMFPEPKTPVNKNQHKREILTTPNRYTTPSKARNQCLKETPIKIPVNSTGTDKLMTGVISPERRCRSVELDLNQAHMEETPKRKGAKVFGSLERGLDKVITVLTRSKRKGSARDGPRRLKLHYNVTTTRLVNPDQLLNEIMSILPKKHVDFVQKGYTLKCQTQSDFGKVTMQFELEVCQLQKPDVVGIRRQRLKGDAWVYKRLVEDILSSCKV
Sequence of MAPK9 (human) (P45984 whole entry, looked up): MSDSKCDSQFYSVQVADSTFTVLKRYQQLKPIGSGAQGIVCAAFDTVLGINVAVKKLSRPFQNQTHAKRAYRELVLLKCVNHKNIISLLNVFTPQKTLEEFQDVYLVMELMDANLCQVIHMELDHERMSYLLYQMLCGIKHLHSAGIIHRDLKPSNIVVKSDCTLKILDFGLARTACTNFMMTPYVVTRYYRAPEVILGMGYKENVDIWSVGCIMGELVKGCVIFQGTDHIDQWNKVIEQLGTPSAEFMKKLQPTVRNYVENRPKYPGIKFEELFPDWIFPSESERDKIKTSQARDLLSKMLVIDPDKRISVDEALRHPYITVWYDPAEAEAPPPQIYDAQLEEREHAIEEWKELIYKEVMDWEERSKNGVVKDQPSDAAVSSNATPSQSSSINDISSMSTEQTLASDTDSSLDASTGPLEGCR
Sequence of PAK7 (human) (Q9P286 whole entry, looked up): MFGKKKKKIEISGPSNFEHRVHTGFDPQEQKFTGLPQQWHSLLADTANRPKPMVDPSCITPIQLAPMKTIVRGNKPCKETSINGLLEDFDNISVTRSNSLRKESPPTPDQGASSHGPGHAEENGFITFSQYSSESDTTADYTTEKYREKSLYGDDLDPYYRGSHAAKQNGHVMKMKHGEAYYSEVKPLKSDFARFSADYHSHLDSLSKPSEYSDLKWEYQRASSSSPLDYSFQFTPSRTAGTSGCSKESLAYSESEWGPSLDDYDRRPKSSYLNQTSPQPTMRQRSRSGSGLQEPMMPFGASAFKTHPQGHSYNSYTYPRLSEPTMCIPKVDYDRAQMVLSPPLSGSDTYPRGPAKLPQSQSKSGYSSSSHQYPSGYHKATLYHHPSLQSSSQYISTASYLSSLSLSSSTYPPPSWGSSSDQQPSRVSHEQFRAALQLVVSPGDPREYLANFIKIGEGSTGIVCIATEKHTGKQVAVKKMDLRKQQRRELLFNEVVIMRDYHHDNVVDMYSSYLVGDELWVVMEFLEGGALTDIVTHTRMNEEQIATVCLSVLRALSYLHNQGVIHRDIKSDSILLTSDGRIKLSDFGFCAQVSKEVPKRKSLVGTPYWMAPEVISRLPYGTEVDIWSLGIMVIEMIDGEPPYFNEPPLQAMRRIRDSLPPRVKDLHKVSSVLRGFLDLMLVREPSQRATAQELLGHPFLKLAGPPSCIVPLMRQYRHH
Sequence of DYRK2 (human) (Q92630 whole entry, looked up): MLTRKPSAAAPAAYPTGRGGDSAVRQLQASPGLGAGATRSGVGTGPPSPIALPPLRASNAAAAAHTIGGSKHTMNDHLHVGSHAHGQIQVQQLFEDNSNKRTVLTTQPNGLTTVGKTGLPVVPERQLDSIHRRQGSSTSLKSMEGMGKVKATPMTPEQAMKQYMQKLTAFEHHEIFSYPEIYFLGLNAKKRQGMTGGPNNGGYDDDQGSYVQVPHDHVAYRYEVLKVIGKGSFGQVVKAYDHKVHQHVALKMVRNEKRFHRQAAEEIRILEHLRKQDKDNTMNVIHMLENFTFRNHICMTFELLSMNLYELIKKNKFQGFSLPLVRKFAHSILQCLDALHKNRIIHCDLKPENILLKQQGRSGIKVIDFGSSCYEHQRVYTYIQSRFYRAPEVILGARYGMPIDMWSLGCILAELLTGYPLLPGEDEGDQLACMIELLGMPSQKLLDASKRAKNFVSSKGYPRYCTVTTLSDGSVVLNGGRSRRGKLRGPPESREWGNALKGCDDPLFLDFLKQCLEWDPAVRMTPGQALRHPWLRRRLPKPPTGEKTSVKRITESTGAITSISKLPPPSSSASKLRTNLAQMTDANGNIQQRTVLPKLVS

Cc1cccc(Nc2nn(C)c3ncnc(N)c23)c1
residual activity (AURKB (human); compound 1.0 µM): 96%
residual activity (AURKB (human); compound 10.0 µM): 87%
residual activity (CAMKK2 (human); compound 1.0 µM): 125%
residual activity (CAMKK2 (human); compound 10.0 µM): 117%
residual activity (CSK (human); compound 1.0 µM): 97%
residual activity (CSK (human); compound 10.0 µM): 85%
residual activity (CSNK1D (human); compound 1.0 µM): 77%
residual activity (CSNK1D (human); compound 10.0 µM): 87%
residual activity (CaMK1 (human); compound 1.0 µM): 92%
residual activity (CaMK1 (human); compound 10.0 µM): 89%
residual activity (DYRK1A (human); compound 1.0 µM): 90%
residual activity (DYRK1A (human); compound 10.0 µM): 101%
residual activity (DYRK2 (human); compound 1.0 µM): 93%
residual activity (DYRK2 (human); compound 10.0 µM): 89%
residual activity (HIPK2 (human); compound 1.0 µM): 124%
residual activity (HIPK2 (human); compound 10.0 µM): 125%
residual activity (IKBKB (human); compound 1.0 µM): 101%
residual activity (IKBKB (human); compound 10.0 µM): 101%
residual activity (MAPK12 (human); compound 1.0 µM): 120%
residual activity (MAPK12 (human); compound 10.0 µM): 132%
residual activity (MAPK14 (human); compound 1.0 µM): 118%
residual activity (MAPK14 (human); compound 10.0 µM): 122%
residual activity (MAPK15 (human); compound 1.0 µM): 76%
residual activity (MAPK15 (human); compound 10.0 µM): 93%
residual activity (MAPK8 (human); compound 1.0 µM): 99%
residual activity (MAPK8 (human); compound 10.0 µM): 97%
residual activity (MAPK9 (human); compound 1.0 µM): 104%
residual activity (MAPK9 (human); compound 10.0 µM): 117%
residual activity (MAPKAPK2 (human); compound 1.0 µM): 101%
residual activity (MAPKAPK2 (human); compound 10.0 µM): 104%
residual activity (MAPKAPK5 (human); compound 1.0 µM): 101%
residual activity (MAPKAPK5 (human); compound 10.0 µM): 109%
residual activity (MELK (human); compound 1.0 µM): 108%
residual activity (MELK (human); compound 10.0 µM): 118%
residual activity (MKNK2 (human); compound 1.0 µM): 103%
residual activity (MKNK2 (human); compound 10.0 µM): 76%
residual activity (PAK4 (human); compound 1.0 µM): 86%
residual activity (PAK4 (human); compound 10.0 µM): 95%
residual activity (PAK7 (human); compound 1.0 µM): 139%
residual activity (PAK7 (human); compound 10.0 µM): 124%
residual activity (PIM1 (human); compound 1.0 µM): 127%
residual activity (PIM1 (human); compound 10.0 µM): 115%
residual activity (PRKACA (human); compound 1.0 µM): 106%
residual activity (PRKACA (human); compound 10.0 µM): 98%

O=C1Nc2nc(-c3c(O)cccc3OCC3CC3)cc(C3CCCNC3)c2CO1 (stereo not given)
residual activity (BTK (human); compound 1.0 µM): 100%
residual activity (BTK (human); compound 10.0 µM): 83%
residual activity (CAMKK2 (human); compound 1.0 µM): 94%
residual activity (CAMKK2 (human); compound 10.0 µM): 78%
residual activity (CSK (human); compound 1.0 µM): 91%
residual activity (CSK (human); compound 10.0 µM): 92%
residual activity (CSNK1D (human); compound 1.0 µM): 81%
residual activity (CSNK1D (human); compound 10.0 µM): 43%
residual activity (CaMK1 (human); compound 1.0 µM): 54%
residual activity (CaMK1 (human); compound 10.0 µM): 13%
residual activity (DYRK1A (human); compound 1.0 µM): 99%
residual activity (DYRK1A (human); compound 10.0 µM): 82%
residual activity (DYRK2 (human); compound 1.0 µM): 99%
residual activity (DYRK2 (human); compound 10.0 µM): 77%
residual activity (EPHB3 (human); compound 1.0 µM): 89%
residual activity (EPHB3 (human); compound 10.0 µM): 93%
residual activity (HIPK2 (human); compound 1.0 µM): 84%
residual activity (HIPK2 (human); compound 10.0 µM): 34%
residual activity (IGF1R (human)): 80%
residual activity (IKBKE (human); compound 1.0 µM): 83%
residual activity (IKBKE (human); compound 10.0 µM): 74%
residual activity (MAPK12 (human); compound 1.0 µM): 85%
residual activity (MAPK12 (human); compound 10.0 µM): 66%
residual activity (MAPK14 (human); compound 1.0 µM): 91%
residual activity (MAPK14 (human); compound 10.0 µM): 78%
residual activity (MAPK15 (human); compound 1.0 µM): 53%
residual activity (MAPK15 (human); compound 10.0 µM): 10%
residual activity (MAPK8 (human); compound 1.0 µM): 76%
residual activity (MAPK8 (human); compound 10.0 µM): 61%
residual activity (MAPK9 (human); compound 1.0 µM): 90%
residual activity (MAPK9 (human); compound 10.0 µM): 93%
residual activity (MAPKAPK5 (human); compound 1.0 µM): 74%
residual activity (MAPKAPK5 (human); compound 10.0 µM): 58%
residual activity (MELK (human); compound 10.0 µM): 58%
residual activity (MKNK2 (human); compound 1.0 µM): 98%
residual activity (MKNK2 (human); compound 10.0 µM): 87%
residual activity (PAK4 (human); compound 1.0 µM): 89%
residual activity (PAK4 (human); compound 10.0 µM): 54%
residual activity (PAK7 (human); compound 1.0 µM): 82%
residual activity (PAK7 (human); compound 10.0 µM): 72%
residual activity (PIM1 (human); compound 1.0 µM): 76%
residual activity (PIM1 (human); compound 10.0 µM): 15%
residual activity (PRKACA (human); compound 1.0 µM): 79%
residual activity (PRKACA (human); compound 10.0 µM): 65%
residual activity (YES1 (human); compound 1.0 µM): 94%
residual activity (YES1 (human); compound 10.0 µM): 49%
